# Patent publication US20240166693A1, “METHODS AND COMPOUNDS FOR MODULATING MYOTONIC DYSTROPY 1” (Design Therapeutics, Inc., priority 2020, published 2024)
# Tested on: Myotonic Dystrophy 1 affected patient fibroblasts (Coriell GM04602; 1600 CTG repeats)
# Assay: DM1 foci reduction assay (CAG10-Cy3 FISH, average foci per nucleus)
# Format: cell-based
# Settings: Homo sapiens, Fibroblast, 48 h, read-out: Foci Reduction in Fibroblast EC50, 48 h (nM)
# Outline: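 Read-out is mean nuclear foci per well from CAG10-Cy3 FISH (5 nM probe, overnight 37 °C) with DAPI nuclei, 4 fields per well at 20×. Compounds ran 48 h in 8-point, 3-fold series topping at 3 μM on 1600-CTG GM04602 fibroblasts, alongside GM07492 wild-type cells.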
row,Structure (SMILES),EC50 [nM]
1,CCN(CC)CCCC[C@H](NC(=O)[C@H](CC(C)C)NC(=O)[C@H](C)NC(=O)[C@H](Cc1ccccc1)NC(=O)c1ccc(C(C)(C)C)cc1)C(=O)N[C@@H](CO)C(=O)Nc1ccc(OCCOCCOCCNC(=O)CCNC(=O)c2nc(NC(=O)c3cc(NC(=O)CCNC(=O)c4nc(NC(=O)CCCNC(=O)c5cc(NC(=O)c6nc(NC(=O)CCNC(=O)c7cc(NC(=O)c8nccn8C)cn7C)cn6C)cn5C)cn4C)cn3C)cn2C)cc1 [Compound 178],< 100
2,CCN(CC)CCCC[C@H](NC(=O)CCCCOCCOCCNC(=O)c1ccc(C(C)(C)C)cc1)C(=O)N[C@@H](CO)C(=O)NCCOCCOCCOCCOCCOCCNC(=O)CCNC(=O)c1nc(NC(=O)c2cc(NC(=O)CCNC(=O)c3nc(NC(=O)CCCNC(=O)c4cc(NC(=O)c5nc(NC(=O)CCNC(=O)c6cc(NC(=O)c7nccn7C)cn6C)cn5C)cn4C)cn3C)cn2C)cn1C [Compound 141],100 to 500
3,CCN(CC)CCCC[C@H](NC(=O)[C@H](CC(C)C)NC(=O)[C@H](C)NC(=O)[C@H](Cc1ccccc1)NC(=O)c1ccc(C(C)(C)C)cc1)C(=O)N[C@@H](CO)C(=O)NCCOCCOCCOCCOCCOCCNC(=O)CCNC(=O)c1nc(NC(=O)c2cc(NC(=O)CCNC(=O)c3nc(NC(=O)[C@@H](CCNC(=O)c4cc(NC(=O)c5nc(NC(=O)CCNC(=O)c6cc(NC(=O)c7nccn7C)cn6C)cn5C)cn4C)NC(C)=O)cn3C)cn2C)cn1C [Compound 102],100 to 500
4,CCN(CC)CCCC[C@H](NC(=O)[C@H](CC(C)C)NC(=O)[C@H](C)NC(=O)[C@H](Cc1ccccc1)NC(=O)c1ccc(C(C)(C)C)cc1)C(=O)N[C@@H](CO)C(=O)NCCOCCOCCNC(=O)c1cc(NC(=O)c2cc(NC(=O)c3nc(NC(=O)c4cc(NC(=O)[C@@H](N)CCNC(=O)c5nc(NC(=O)CCNC(=O)c6cc(NC(=O)c7nccn7C)cn6C)cn5C)cn4C)cn3C)cn2C)cn1C [Compound 82],> 500
5,CCN(CC)CCCC[C@H](NC(=O)[C@H](CC(C)C)NC(=O)[C@H](C)NC(=O)[C@H](Cc1ccccc1)NC(=O)c1ccc(C(C)(C)C)cc1)C(=O)N[C@@H](CO)C(=O)NCCOCCOCCOCCOCCOCCNC(=O)c1cc(NC(=O)c2cc(NC(=O)c3nc(NC(=O)c4cc(NC(=O)CCCNC(=O)c5nc(NC(=O)CCNC(=O)c6cc(NC(=O)c7nccn7C)cn6C)cn5C)cn4C)cn3C)cn2C)cn1C [Compound 113],> 500
6,CCN(CC)CCCC[C@H](NC(=O)[C@H](CC(C)C)NC(=O)[C@H](C)NC(=O)[C@H](Cc1ccccc1)NC(=O)c1ccc(C(C)(C)C)cc1)C(=O)N[C@@H](CO)C(=O)NCCOCCOCCOCCOCCOCCN(CCCCN=[N+]=[N-])C(=O)CCNC(=O)c1nc(NC(=O)c2cc(NC(=O)CCNC(=O)c3nc(NC(=O)CCCNC(=O)c4cc(NC(=O)c5nc(NC(=O)CCNC(=O)c6cc(NC(=O)c7nccn7C)cn6C)cn5C)cn4C)cn3C)cn2C)cn1C [Compound 189],< 100
7,CC(C)C[C@H](NC(=O)[C@H](Cc1ccccc1)NC(=O)[C@H](CCCCN(C)C(C)C)NC(=O)[C@@H]1C[C@@H]2CCCC[C@@H]2N1)C(=O)NCCOCCOCCOCCOCCOCCNC(=O)CCNC(=O)c1nc(NC(=O)c2cc(NC(=O)CCNC(=O)c3nc(NC(=O)CCCNC(=O)c4cc(NC(=O)c5nc(NC(=O)CCNC(=O)c6cc(NC(=O)c7nccn7C)cn6C)cn5C)cn4C)cn3C)cn2C)cn1C [Compound 145],100 to 500
8,CCN(CC)CCCC[C@H](NC(=O)CCCCOCCNC(=O)c1ccc(C(C)(C)C)cc1)C(=O)N[C@@H](CO)C(=O)NCCOCCOCCOCCOCCOCCNC(=O)CCNC(=O)c1nc(NC(=O)c2cc(NC(=O)CCNC(=O)c3nc(NC(=O)CCCNC(=O)c4cc(NC(=O)c5nc(NC(=O)CCNC(=O)c6cc(NC(=O)c7nccn7C)cn6C)cn5C)cn4C)cn3C)cn2C)cn1C [Compound 138],100 to 500
9,CC(C)CN(CCCC[C@H](NC(=O)COCCOCCNC(=O)c1ccc(C(C)(C)C)cc1)C(=O)N[C@@H](CO)C(=O)NCCOCCOCCOCCOCCOCCNC(=O)CCNC(=O)c1nc(NC(=O)c2cc(NC(=O)CCNC(=O)c3nc(NC(=O)CCCNC(=O)c4cc(NC(=O)c5nc(NC(=O)CCNC(=O)c6cc(NC(=O)c7nccn7C)cn6C)cn5C)cn4C)cn3C)cn2C)cn1C)C1CC2CCC1C2 (stereo partly shown) [Compound 144],< 100
10,CC(C)CN(CCCC[C@H](NC(=O)[C@H](CCCN1CCOCC1)NC(=O)[C@@H](NC(=O)[C@H](Cc1ccccc1)NC(=O)c1ccc(C(C)(C)C)cc1)C1CCC1)C(=O)N[C@@H](CO)C(=O)NCCOCCOCCOCCOCCOCCNC(=O)CCNC(=O)c1nc(NC(=O)c2cc(NC(=O)CCNC(=O)c3nc(NC(=O)CCCNC(=O)c4cc(NC(=O)c5nc(NC(=O)CCNC(=O)c6cc(NC(=O)c7nccn7C)cn6C)cn5C)cn4C)cn3C)cn2C)cn1C)C1CC2CCC1C2 (stereo partly shown) [Compound 148],> 500

# Same assay, conditions: Homo sapiens, Fibroblast; DM1 fibroblasts, 48 h treatment, 8-point dose response, 3 μM top dose; read-out: Foci Reduction in Fibroblast EC50, 48 h
row,Structure (SMILES),EC50 [nM]
1,CN(C)[C@H]1CN(C2CCc3cccc(F)c32)C[C@@H]1c1ccc(N2CCN(C(=O)COCCOCCOCCOCCOCCNC(=O)CCNC(=O)c3nc(NC(=O)c4cc(NC(=O)CCNC(=O)c5nc(NC(=O)CCCNC(=O)c6cc(NC(=O)c7nc(NC(=O)CCNC(=O)c8cc(NC(=O)c9nccn9C)cn8C)cn7C)cn6C)cn5C)cn4C)cn3C)CC2)cc1 (stereo partly shown) [Compound 146],> 500
2,CCCCCCNc1nc(NC2CCN(CCOCCOCCOCCOCCOCCNC(=O)CCNC(=O)c3nc(NC(=O)c4cc(NC(=O)CCNC(=O)c5nc(NC(=O)CCCNC(=O)c6cc(NC(=O)c7nc(NC(=O)CCNC(=O)c8cc(NC(=O)c9nccn9C)cn8C)cn7C)cn6C)cn5C)cn4C)cn3C)CC2)c2cc(OC)c(OC)cc2n1 [Compound 190],> 500
3,COc1c(OCCOCCOCCOCCOCCOCCNC(=O)CCNC(=O)c2nc(NC(=O)c3cc(NC(=O)CCNC(=O)c4nc(NC(=O)CCCNC(=O)c5cc(NC(=O)c6nc(NC(=O)CCNC(=O)c7cc(NC(=O)c8nccn8C)cn7C)cn6C)cn5C)cn4C)cn3C)cn2C)cccc1C(=O)N1CCN(C(=O)COc2cccc(C)c2)CC1 [Compound 94],> 500
4,"Cn1cc(NC(=O)c2nc(NC(=O)CCNC(=O)c3cc(NC(=O)c4nccn4C)cn3C)cn2C)cc1C(=O)NCCCC(=O)Nc1cn(C)c(C(=O)NCCC(=O)Nc2cc(C(=O)Nc3cn(C)c(C(=O)NCCC(=O)NCCOCCOCCOCCOCCOCCOc4ccc(NC(=O)CCCCCCC(=O)NO)cc4)n3)n(C)c2)n1 [Compound 129, N-hydroxy-N′-{4-[(17-{3-[(1-methyl-4-{1-methyl-4-[3-({1-methyl-4-[4-({1-methyl-4-[1-methyl-4-(3-{[1-methyl-4-(1-methylimidazole-2-amido)pyrrol-2-yl]formamido}propanamido)imidazole-2-amido]pyrrol-2-yl}formamido)butanamido]imidazol-2-yl}formamido)propanamido]pyrrole-2-amido}imidazol-2-yl)formamido]propanamido}-3,6,9,12,15-pentaoxaheptadecan-1-yl)oxy]phenyl}octanediamide]",> 500
5,COc1c(OCCOCCOCCOCCOCCOCCNC(=O)CCNC(=O)c2nc(NC(=O)c3cc(NC(=O)CCNC(=O)c4nc(NC(=O)CCCNC(=O)c5cc(NC(=O)c6nc(NC(=O)CCNC(=O)c7cc(NC(=O)c8nccn8C)cn7C)cn6C)cn5C)cn4C)cn3C)cn2C)cccc1C(=O)N1CCN(C(=O)COc2cccc(OCCNC(=O)CNC(=O)c3ccc(C(C)(C)C)cc3)c2)CC1 [Compound 159],100 to 500
6,CCN(c1cc(-c2ccc(CN3CCN(CCCCCCCNC(=O)CCNC(=O)c4nc(NC(=O)c5cc(NC(=O)CCNC(=O)c6nc(NC(=O)CCCNC(=O)c7cc(NC(=O)c8nc(NC(=O)CCNC(=O)c9cc(NC(=O)c%10nccn%10C)cn9C)cn8C)cn7C)cn6C)cn5C)cn4C)CC3)cc2)cc(C(=O)NCc2c(C)cc(C)[nH]c2=O)c1C)C1CCOCC1 [Compound 164],> 500
7,CC(C)c1cnn2c(NCc3ccc(OCCOCCOCCOCCOCCOCCNC(=O)c4cc(NC(=O)c5cc(NC(=O)c6nc(NC(=O)c7cc(NC(=O)[C@@H](N)CCNC(=O)c8nc(NC(=O)CCNC(=O)c9cc(NC(=O)c%10nccn%10C)cn9C)cn8C)cn7C)cn6C)cn5C)cn4C)cc3-n3cccn3)nc(OC3CCCNC3)nc12 (stereo partly shown) [Compound 122],> 500
8,Cn1cc(NC(=O)c2cc(NC(=O)c3nc(NC(=O)c4cc(NC(=O)[C@@H](N)CCNC(=O)c5nc(NC(=O)CCNC(=O)c6cc(NC(=O)c7nccn7C)cn6C)cn5C)cn4C)cn3C)cn2C)cc1C(=O)NCCOCCOCCOCCOCCOCCOCCOCCOCCOCCOCCOCCOCCOCCOCCOCCN1CCC(C(=O)Nc2ncc(SCc3ncc(C(C)(C)C)o3)s2)CC1 [Compound 121],> 500
9,Cn1cc(NC(=O)c2nc(NC(=O)CCNC(=O)c3cc(NC(=O)c4nccn4C)cn3C)cn2C)cc1C(=O)NCCCC(=O)Nc1cn(C)c(C(=O)NCCC(=O)Nc2cc(C(=O)Nc3cn(C)c(C(=O)NCCC(=O)NCCOCCOCCn4cc(CC(=O)Nc5ccc(C(=O)Nc6ccccc6N)cc5)nn4)n3)n(C)c2)n1 [Compound 123],> 500
10,CN(C)[C@@H]1CN(C2CCc3cccc(F)c32)C[C@H]1c1ccc(N2CCN(C(=O)COCCOCCOCCOCCOCCNC(=O)CCNC(=O)c3nc(NC(=O)c4cc(NC(=O)CCNC(=O)c5nc(NC(=O)CCCNC(=O)c6cc(NC(=O)c7nc(NC(=O)CCNC(=O)c8cc(NC(=O)c9nccn9C)cn8C)cn7C)cn6C)cn5C)cn4C)cn3C)CC2)cc1 (stereo partly shown) [Compound 174],> 500
11,COc1c(OCCOCCOCCOCCOCCOCCNC(=O)CCNC(=O)c2nc(NC(=O)c3cc(NC(=O)CCNC(=O)c4nc(NC(=O)CCCNC(=O)c5cc(NC(=O)c6nc(NC(=O)CCNC(=O)c7cc(NC(=O)c8nccn8C)cn7C)cn6C)cn5C)cn4C)cn3C)cn2C)cccc1C(=O)N1CCN(C(=O)COc2cc(C)c(NC(N)=O)c(C)c2)CC1 [Compound 93],> 500
12,Cn1cc(NC(=O)c2nc(NC(=O)CCNC(=O)c3cc(NC(=O)c4nccn4C)cn3C)cn2C)cc1C(=O)NCCCC(=O)Nc1cn(C)c(C(=O)NCCC(=O)Nc2cc(C(=O)Nc3cn(C)c(C(=O)NCCC(=O)NCCOCCOCCOCCOCCOCCNC(=O)c4ccc(-c5cnc(NCc6ccco6)n6cnnc56)cc4)n3)n(C)c2)n1 [Compound 60],100 to 500
